The term inhibition denotes the drop in the measured response relative to a control, in per cent. A low value points to a response near the control.

Where two headings read alike, the source gives them in different places. Where only a bound is given, the exact number is not on record here.

Data set [1] relates to centrosome-amplified (4NCA) DLD1 cells. Nature of the data set: Multipolar spindle assay (4NCA cell line). The data set is classed as cell-based, human. The text has this: (§1) The cellular models consisted of chromosomally stable human colon cancer DLD1 diploid (2N) and tetraploid (4N) cells, along with tetraploid centrosome -amplified (4NCA) DLD1 cells and DLD1 HSET knockout (KO) cells. DLD1 2N and 4N cells were generated and characterized as previously described.[27],[41],[42] In order to generate 4NCA cells, we used dihydro-cytochalasin B (DCB) to transiently block cytokinesis and induce tetraploidisation and centrosome amplification in DLD1 cells. Centrosome amplification in 4NCA cells is transient and therefore they were generated from 2N cells for each run of the assay.[27] The DLD1 HSET KO cells were knockout clones generated by CRISPR and validated by sequencing to have a homozygous deletion in the KIFC1 gene.
(§2) Inhibition of HSET-mediated clustering was measured using a phenotypic assay measuring the formation of multipolar metaphase spindles in DLD1 cells with (4NCA) or without (4N) centrosome amplification. 4NCA cells were generated by treating 2N DLD1 cells with 2 μΜ DCB for 24 h, washed, and released in growth media for 24 h. 4N and 4NCA DLD1 cells were plated in 96-well ibidi μ-Clear plates (IB-89626, ibidi) with a no. 1.5 polymer coverslip bottom with optimal imaging properties. To enrich the mitotic population, cells were first treated for 3.5 h with 8 μM pro-TAME (I-440-01M, R&D system), an inhibitor of APC/C that transiently arrests cells in metaphase without affecting the structure of the spindle. Following the initial arrest, cells were treated with HSET compounds in the presence of 8 μM MG-132 (S2619, SelleckChem), a proteasome inhibitor that helps to maintain the metaphase arrest, where the number of spindle poles/cell can be optimally quantified by an automated segmentation analysis.
(§3) Cells were then fixed in methanol and stained for 3 h for mitotic pole marker aurora A (1:1000 610939 mouse anti-IAK1, BD Biosciences) and phosphorylated histone H3 (1:1500 ab47297 anti-histone H3 pS10, Abcam) as a marker of mitotic cells in 1.5% FBS in PBS. Following primary antibody treatment, cells were incubated with secondary antibodies Alexa Fluor 488 goat antimouse and Alexa Fluor 555 goat antirabbit (1:1500, A11029 and A21429, respectively, Life Technologies) together with 1 μg/mL DAPI (D9542, Sigma) in 1.5% FBS in PBS. Image acquisition was performed at 10× using the GE INCELL 2200 High Content Imaging System (Cytiva) and analyzed using the InCell Investigator software. Mitotic cells were identified by high pHH3 staining and were scored as multipolar if they had more than two mitotic spindle poles. The percentage of multipolar mitoses was calculated by dividing the number of multipolar mitoses by the total of all visible mitoses in one well of a 96-well plate (n > 100 for each replicate, two replicates per concentration point).

Data set [2] deals with T1, GST-tagged Eg5 motor domain (Homo sapiens, UniProt P52732).
T1 construct: 4 nM GST-tagged Eg5 motor domain protein (Cytoskeleton, EG01); purchased Cytoskeleton EG01
T1 sequence (P52732 18-359 limits assumed): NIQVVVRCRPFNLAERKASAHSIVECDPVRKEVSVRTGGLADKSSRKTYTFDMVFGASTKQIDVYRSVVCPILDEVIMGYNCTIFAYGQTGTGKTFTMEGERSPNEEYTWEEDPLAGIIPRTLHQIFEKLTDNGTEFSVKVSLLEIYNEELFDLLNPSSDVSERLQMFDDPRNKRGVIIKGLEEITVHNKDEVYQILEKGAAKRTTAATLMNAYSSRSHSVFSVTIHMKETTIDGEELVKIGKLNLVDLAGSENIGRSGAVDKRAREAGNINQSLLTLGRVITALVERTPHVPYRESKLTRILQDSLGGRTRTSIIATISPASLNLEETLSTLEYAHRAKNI
Nature of the data set: ADP-Glo Eg5 assay (4.8 μM ATP). As to conditions: for IC50: preformed microtubules, 4.8 μM ATP (Table 4). The data set is classed as biochemical. The method, then: (§4) The HSET or Eg5 ATPase activity was measured using the ADP-Glo Kinase Assay kit (Promega, V9102). The assays were run using final concentrations of 5 nM full-length human N-terminal His-tag HSET or 4 nM GST-tagged Eg5 motor domain protein (Cytoskeleton, EG01) and an assay buffer containing 20 mM HEPES pH 6.8, 10 mM MgCl2, 0.25 mM EGTA, 0.4 mM Triton X-100, and 1 mM DTT. Preformed microtubules (Universal Biologicals Cambridge, bovine MT001-XL, or porcine MT002-XL), which were reconstituted in 15 mM PIPES pH 7, 1 mM MgCl2, and 20 μM paclitaxel, were present at a final assay concentration of 70 μg/mL. A reaction volume of 5 μL was used in Proxiplate 384 plus white assay plates (PerkinElmer, 6008280). To measure compound inhibition, 100 nL of compound dissolved in DMSO or DMSO alone was preincubated with the HSET and microtubules for 10 min before 3 μM Ultra-Pure ATP was added to start the ATPase reaction for the 3 μM ATP HSET assay. For the 500 μM ATP HSET assay, the addition of 500 μM Ultra-Pure ATP was used. For the Eg5 ATPase assay, 4.8 μM Ultra-Pure ATP was used. All reactions were incubated at 25 °C for 80 min and then stopped by the addition of 5 μL of the ADP-Glo reagent. 10 μL of Kinase Detection Reagent was then added after a further 45 min of incubation. The luminescence was read after 45 min on a PheraStar FSX plate reader (BMG Labtech). The data processing was performed using Dotmatics Studies software package. Percentage inhibition was determined based on normalization to high controls (0% inhibition, all reagents with 100 nL of DMSO alone) and low controls (100% inhibition […], without HSET). The IC50 values for each compound were determined using a four-parameter logistic curve fit of % inhibition versus concentration.
(In general: ADP-Glo first removes unused ATP, then detects ADP through luciferase.)

Data set [3] relates to non-centrosome amplified DLD1 (4N) cells. Nature of the data set: Multipolar spindle assay (4N cell line). As to conditions: for % Multipolarity above baseline @ 15 mM (4N cells): supplementary CSV; for % multipolarity above baseline @ 15 μM (4N cells): 4N DLD1 cells (Table 4). It counts as cell-based, human.
Excerpt: as §1, §2, §3

The target of data set [4] is T2, recombinant full-length HSET (Homo sapiens, UniProt Q9BW19).
T2 construct: 5 nM full-length human N-terminal His-tag HSET; His-tag (N)
T2 sequence (Q9BW19 1-673): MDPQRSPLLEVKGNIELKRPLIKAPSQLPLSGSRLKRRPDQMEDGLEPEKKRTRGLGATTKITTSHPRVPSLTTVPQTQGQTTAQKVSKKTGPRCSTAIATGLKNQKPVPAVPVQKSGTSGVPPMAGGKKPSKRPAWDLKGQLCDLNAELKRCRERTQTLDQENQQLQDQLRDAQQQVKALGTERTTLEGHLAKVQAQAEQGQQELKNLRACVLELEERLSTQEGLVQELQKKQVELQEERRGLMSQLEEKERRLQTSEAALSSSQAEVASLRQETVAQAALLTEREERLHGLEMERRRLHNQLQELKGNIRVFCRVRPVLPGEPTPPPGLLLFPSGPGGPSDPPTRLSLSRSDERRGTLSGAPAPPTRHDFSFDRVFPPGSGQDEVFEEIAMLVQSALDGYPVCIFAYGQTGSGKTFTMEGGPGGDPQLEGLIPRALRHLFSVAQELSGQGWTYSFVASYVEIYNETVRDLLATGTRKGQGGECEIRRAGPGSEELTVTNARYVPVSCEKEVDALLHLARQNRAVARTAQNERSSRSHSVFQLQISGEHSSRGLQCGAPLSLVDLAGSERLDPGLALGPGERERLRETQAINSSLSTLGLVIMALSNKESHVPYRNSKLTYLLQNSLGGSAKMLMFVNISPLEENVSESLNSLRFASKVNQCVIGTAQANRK
Nature of the data set: ADP-Glo HSET assay (3 μM ATP), microtubule-stimulated ATPase. The data set is classed as biochemical. The settings on record: for HSET inhibitory activity (in words): HSET ADP-Glo. How it is done:
as §4

[5] abbreviates: 15 μM, 4NCA DLD1 cells (Table 4).
Where [6] appears, read: 15 µM, 4NCA cells, supplementary CSV.
Where [7] appears, read: LE = −1.4Log(IC50 [M])/number of non-hydrogen atoms (Table 1).
Setting [8] is: LLE = −Log(IC50 [M]) – cLogP (MoKa) (Table 1).
The mark [9] stands for this setting: preformed microtubules, 3 μM ATP, mean (±SD) n ≥ 3 (Table 4), read-out: HSET ADP-Glo IC50.
Setting [10] is: preformed microtubules, 3 μM ATP, mean (±SD) n ≥ 3, >200 from a single determination (Table 1), read-out: HSET ADP-Glo IC50.
Setting [11] is: preformed microtubules, 3 μM ATP, mean (±SD) n ≥ 3, >200 from a single determination (Table 2), read-out: HSET ADP-Glo IC50.
Setting [12] is: LE = −1.4Log(IC50 [M])/number of non-hydrogen atoms (Table 2).
The mark [13] stands for this setting: LLE = −Log(IC50 [M]) – cLogP (MoKa) (Table 2).

On to `CCOC(=O)c1sc(NC(=O)CCNC(=O)c2cccc(C)c2)nc1C` [Compound 2, Ethyl 4-Methyl-2-(3-(3-methylbenzamido)propanamido)thiazole-5-carboxylate], for which the “% multipolarity above baseline @ 15 μM (4NCA cells)” value in data set [1] (setting [5]) and in data set [1] (setting [6]) was 0% in each case. Also, the IC50 in data set [2] is greater than 200 µM; in data set [4] (ATP concentration of 3 μM, read-out: HSET IC50), 2700 nM; in data set [4] (ATP concentration of 150 μM, read-out: HSET IC50 at higher ATP concentration), 7100 nM; in data set [4] (setting [9]), 2730 nM; in data set [4] (setting [10]), 2730 nM. The same molecule returned an inhibition at 200 µM in data set [2] (top concentration of 200 μM) of 10%. In data set [3] (15 μM), the “% Multipolarity above baseline @ 15 mM (4N cells)” value is 1%. In data set [3], the “% multipolarity above baseline @ 15 μM (4N cells)” value worked out at 1%. In addition, in data set [4], the “ligand efficiency (LE)” value worked out at 0.30. Further, the “lipophilic ligand efficiency (LLE)” value in data set [4] worked out at 2.5. For the same molecule, in data set [4] (setting [7]), the LE is listed as 0.30. The LLE in data set [4] (setting [8]) was 2.5.

`CCOC(=O)c1sc(NC(=O)CCNC(=O)c2cccc(OC)c2)nc1C` [Compound 11, Ethyl 2-(3-(3-Methoxybenzamido)propanamido)-4-methylthiazole-5-carboxylate]: the LE in data set [4] (setting [7]) worked out at 0.28. The LLE in data set [4] (setting [8]) came to 2.8. Also, the IC50 in data set [4] (setting [10]) is 3540 nM.

As for `CCOC(=O)c1sc(NC(=O)CNC(=O)c2cccc(-c3noc(C)n3)c2)nc1C` [Compound 21, Ethyl 4-Methyl-2-(2-(3-(5-methyl-1,2,4-oxadiazol-3-yl)benzamido)acetamido)thiazole-5-carboxylate], in data set [4], the “HSET inhibitory activity (in words)” value is listed as “abolished the HSET activity”. Also, in data set [4] (setting [11]), the IC50 was greater than 200000 nM.

As for `CCOC(=O)c1sc(NC(=O)C[C@H](C)NC(=O)c2cccc(-c3noc(C)n3)c2)nc1C` [Compound 30, Ethyl 4-Methyl-2-[[(3S)-3-[[3-(5-methyl-1,2,4-oxadiazol-3-yl)benzoyl]amino]butanoyl]amino]thiazole-5-carboxylate], the LE in data set [4] (setting [12]) amounted to 0.32. Also, in data set [4] (setting [13]), the LLE is recorded as 4.1. The IC50 in data set [4] (setting [11]) is 61 nM.

Turning to `CCOC(=O)c1sc(N(C)C(=O)CCNC(=O)c2cccc(-c3noc(C)n3)c2)nc1C` [Compound 23, Ethyl 4-Methyl-2-(N-methyl-3-(3-(5-methyl-1,2,4-oxadiazol-3-yl)benzamido)propanamido)thiazole-5-carboxylate], the LE in data set [4] (setting [12]) was 0.31. Further, in data set [4] (setting [13]), the LLE is 4.6. Also, the IC50 in data set [4] (setting [11]) turned out to be 89 nM.

On to `CCOC(=O)c1sc(NC(=O)CCNC(=O)c2cccc(-c3n[nH]c(C)n3)c2)nc1C` [Compound 15, Ethyl 4-Methyl-2-(3-(3-(5-methyl-1H-1,2,4-triazol-3-yl)benzamido)propanamido)thiazole-5-carboxylate], for which the “HSET inhibitory activity (in words)” value in data set [4] is “eliminated potency”. The IC50 in data set [4] (setting [10]) was greater than 200000 nM.

As to `CCOC(=O)c1sc(NC(=O)CCNC(=O)c2cccc(-c3noc(C)n3)c2)nc1C` [Compound 13, Ethyl 4-Methyl-2-(3-(3-(5-methyl-1,2,4-oxadiazol-3-yl)benzamido)propanamido)thiazole-5-carboxylate], the “% multipolarity above baseline @ 15 μM (4NCA cells)” value in data set [1] (setting [5]) and in data set [1] (setting [6]) was 9% throughout. For the same molecule, in data set [1] (15 μM, centrosome-amplified (4NCA) DLD1 cell line), the “increase in mitotic spindle multipolarity (4NCA)” value is roughly 10%. In addition, the IC50 in data set [2] was greater than 200 µM; in data set [4] (setting [9]), 63 nM; in data set [4] (setting [10]) it was 63 nM. In data set [3] (15 μM), the “% Multipolarity above baseline @ 15 mM (4N cells)” value came to 1%. The “effect on multipolar mitoses (4N), in words” value in data set [3] (15 μM, non-centrosome amplified DLD1 (4N) cell line) is “no increases in multipolar mitoses”. For the same molecule, the “% multipolarity above baseline @ 15 μM (4N cells)” value in data set [3] was 1%. The LE in data set [4] (setting [7]) is reported as 0.33. Also, in data set [4] (setting [8]), the LLE amounted to 4.6.

Turning to `CCCOC(=O)c1cc(NC(=O)CCNC(=O)c2cccc(-c3noc(C)n3)c2)nn1C` [Compound 28, Propyl 1-Methyl-3-(3-(3-(5-methyl-1,2,4-oxadiazol-3-yl)benzamido)propanamido)-1H-pyrazole-5-carboxylate], the LE in data set [4] (setting [12]) worked out at 0.30. Besides, the LLE in data set [4] (setting [13]) stood at 4.7. For the same molecule, the IC50 in data set [4] (setting [11]) was 157 nM.

Source of the values: article PMC9969401, “Discovery of 2-(3-Benzamidopropanamido)thiazole-5-carboxylate Inhibitors of the Kinesin HSET (KIFC1) and the Development of Cellular Target Engagement Probes” (Journal of Medicinal Chemistry, 2023).
